Patent US12240854B2, “TRAF 6 inhibitors” (Helmholtz Zentrum München - Deutsches Forschungszentrum für …, priority 2018, dated 2025)
“Also recorded” adds a separate entry of the source.

Tests used:
HepG2 cells = assay: CellTiter-Glo viability assay, HepG2 cells; type: cell-based; settings: 6 or 24 hours incubation
Experimental: For cell viability experiments using the CellTiter-Glo® 2.0 system (Promega), MEF cells (1.2×10^3 cells/well), HepG2 cells (4×10^3 cells/well) and Jurkat T-cells (5×10^3 cells/well) were seeded in 384 well plates. After 18 hours, cells were treated with compounds using the Sciclone G3 automation system. After 6 or 24 hours incubation, the luciferase measurement was performed according to the manufacturer's manual.

[1] = test system: osteosarcoma cell line U2OS; assay: Cell growth of the osteosarcoma cell line U2OS with or without irradiation; type: cell-based
Experimental: For analysis of the cell growth of the osteosarcoma cell line U2OS, 5×10^3 cells were seeded in 96 well plates. 18 hours later, cells were treated with C25-140 (compound 3) or DMSO for 6 hours. Using a ^137caesium source (HWM-D2000), selected samples were irradiated with a dose of either 2 Gy or 4 Gy. Cell growth was measured every 24 hours for a period of 7 days by counting Hoechst33342 positive cells in an Operetta High-Content Imaging System (PerkinElmer) and the Harmony/Columbus analysis software (PerkinElmer).

[2] = ADME: microsomal stability; type: in vitro ADME
Experimental: All ADME (plasma stability, plasma protein binding, microsomal stability, Log D, Caco-2 assay, CYP450 inhibition and hERG predictor assay) as well as pharmacokinetic studies (Tmax, Cmax, AUC0-240min, Mean Residence Time, Elimination half life, Elimination rate constant, Volume of Distribution and Clearance) of C25-140 (compound 3) were conducted by Bienta Enamine Biology Services of Bienta/Enamine Ltd.

[3] = test system: primary human peripheral blood mononuclear cells (PBMCs); assay: Human PBMC cytokine secretion (ELISA); type: cell-based
Experimental: For measurement of cytokine secretion, 2×10^5 Jurkat T-cells or primary CD4^+ T-cells or human PBMCs per sample were seeded, treated with compound for 6 hours and stimulated as indicated. 20 hours after stimulation, supernatants were harvested and analyzed with the IL-2, IL-1β and TNFα Ready-Set-Go! ELISA (2nd Generation) kits provided by Affymatrix eBioscience.
For isolation of peripheral blood mononuclear cells (PBMCs) from 50 mL human blood of three different donors, blood was mixed with 800 units of Heparin (Sigma-Aldrich) and centrifuged at 300×g for 10 minutes without brake. After removal of the plasma fraction, buffy coat was diluted in 2 volumes PBS and added on top of 15 ml Lymphoprep (STEMCELL technologies). After centrifugation at 160×g for 20 minutes at room temperature without brake, platelets were removed and the cell suspension was centrifuged again at 350×g for 20 minutes without brake. Mononuclear cells from the intermediate layer were transferred to a new falcon and washed 3 times in PBS supplemented with 0.1% BSA and 2 mM EDTA. In the end, cells were resuspended in RPMI medium containing 10% FCS, 1% Penicillin/Streptomycin and 50 μM β-mercaptoethanol. Per sample, 2×10^5 cells were seeded and treated with compound for 6 hours. The cells were stimulated with either 1 μg/ml Lipopolysaccharide (LPS) or CD3/CD28 (1 μg hCD3 (IgG2A), 4 μg hCD28 (IgG1), […] and […]) or 20 ng/IL-1β. Supernatants for analysis of cytokine secretion were harvested 20 hours after stimulation.

[4] = test system: IKK kinase activity in Jurkat T-cells; assay: IKK kinase assay in Jurkat T-cells; type: cell-based, human; settings: PMA/Ionomycin
Experimental: For MEF cells, 5.5×10^5 cells were seeded, then treated with compound for 6 hours and eventually stimulated with IL-1β or TNFα for 8 minutes. 1×10^6 Jurkat T-cells were treated with compound for 6 hours and finally stimulated with PMA (400 ng/ml) and lonomycin (600 ng/ml) for 8 minutes. After cell lysis in Co-IP lysis buffer (150 mM NaCl; 25 mM Hepes (pH 7.5); 0.2% NP-40; 1 mM Glycerol; 10 mM NaF; 8 mM β-Glycerophosphat; 1 mM DTT; 300 μM Sodium-vanadate; complete protease inhibitor), input samples were taken and the supernatant was then incubated with 6 μL IKKγ antibody FL-419 (Santa Cruz Biotechnology). Upon incubation with Protein-G-Sepharose beads (GE Healthcare), beads were washed in Co-IP wash buffer (150 mM NaCl; 25 mM Hepes (pH 7.5); 0.2% NP-40; 1 mM Glycerol) and transferred into kinase reaction buffer ([…] HEPES pH7.9; 10 mM MgCl2; 20 μM ATP; 20 mM β-Glycerophosphat; 200 μM Sodium-Vanadate; 1 mM DTT) supplemented with […] GST-IκBα (1-53) and 0.5 μL ^32P-γ-ATP. After 30 minutes incubation at 37° C., reaction was stopped and analyzed by autoradiography as well as Western Blot after separation on SDS-PAGE.

MURF/TRIM63 = molecular target: T1, MURF/TRIM63 (Homo sapiens, UniProt Q969Q1); assay: In vitro ubiquitination assay, TRIM63 ubiquitin ligase kit; type: biochemical; settings: K48 chain formation
T1 construct: purchased Boston Biochem
Experimental: For analysis of cIAP1, MDM2, TRIM63, RNF4, ITCH and E6AP mediated poly-ubiquitination, the respective ubiquitin ligase kit from Boston Biochem (K-102, K-260, K-200B, K-220, K-240 and K-270) was used. Here, reaction buffer, E1, E2 and E3 enzyme (and p53 substrate in case of MDM2) were mixed and pre-incubated with compound or DMSO for 5 minutes at room temperature before adding Mg^2+-ATP and mono-ubiquitin for reaction start. Ubiquitination was visualized by Western Blot analyses.

BJAB (GCB DLBCL) = assay: Cell viability in DLBCL, BJAB; type: cell-based; settings: 30 μM, 9 days
Experimental: To determine the effects of C25-140 on MYD88-dependent ABC-DLBCL, we chose the HBL1 (ABC-DLBCL-MYD88 L265P), U2932 (ABC DLBCL-MYD88 wt) and BJAB (GCB DLBCL) cell lines. 1×10^6 cells of each cell line was seeded in 5 ml and treated with 30 μM compound C25-140 (compound 3) or DMSO. The entire experiment was carried out for 9 days. Every day 500 μl were taken and viable cell number was acquired using the ViCEII cell counter (Beckmann Coulter). At days 4 and 8 of the experiment the volume was again adjusted to 5 ml and samples were supplemented with 30 μM compound C25-140 or DMSO. This process was necessary to ensure linear proliferation of DMSO treated cells. All curves of C25-140 treated samples were referred to the corresponding DMSO treated controls.

T1 sequence (Q969Q1 whole entry): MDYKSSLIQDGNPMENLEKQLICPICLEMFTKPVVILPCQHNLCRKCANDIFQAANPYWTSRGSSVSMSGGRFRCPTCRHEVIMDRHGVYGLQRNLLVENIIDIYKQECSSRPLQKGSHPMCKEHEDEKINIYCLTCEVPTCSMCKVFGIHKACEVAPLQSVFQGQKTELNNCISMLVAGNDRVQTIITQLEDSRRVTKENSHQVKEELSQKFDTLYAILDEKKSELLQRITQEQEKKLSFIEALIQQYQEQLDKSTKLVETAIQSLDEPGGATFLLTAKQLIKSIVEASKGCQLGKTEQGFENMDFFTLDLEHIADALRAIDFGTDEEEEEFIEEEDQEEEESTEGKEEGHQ

SMILES: Cc1nn(-c2ccc3nnc(C)n3n2)c(C)c1CCC(=O)N1CCC(Cc2ccccc2)CC1 [Example C25-140, 1-(4-Benzylpiperidin-1-yl)-3-(3,5-dimethyl-1-(3-methyl-[1,2,4]-triazolo-[4,3-b]-pyridazin-6-yl)-1H-pyrazol-4-yl)-propan-1-one]
- metabolic activity and cell viability (HepG2 cells): did not considerably impact cell viability; also recorded: does not considerably affect metabolic activity and cell viability up to 50 μM; also recorded: at the highest dose of 100 μM toxicity is noticeable
- osteosarcoma cell growth ([1]; 30 μM compound + 2Gy irradiation): synergistic effects; also recorded: boosted the effect to the region of 4Gy irradiation; also recorded: decreases cell growth to the same extent as the higher dose of irradiation (4Gy)
- osteosarcoma cell growth ([1]; compound alone at 30 μM): reducing proliferation of U2OS cells to the same degree as 2Gy irradiation; also recorded: same inhibitory impact; also recorded: reduced
- microsomal stability [2]: stable
- secretion of IL-2 and TNFα ([3]; CD3/CD28 stimulation): decreased levels of IL-2 and TNFα secretion
- secretion of IL-6 and TNFα ([3]; IL-1β stimulation): reduced secretion; also recorded: attenuated
- secretion of IL-1β and TNFα ([3]; LPS stimulation): reduced secretion; also recorded: reduced levels of IL-1β and TNFα cytokines
- IKK kinase activity [4]: reduced; also recorded: diminished
- S5A ubiquitination by MURF/TRIM63 (MURF/TRIM63): not influenced; also recorded: not affected
- viability of GCB DLBCL (BJAB (GCB DLBCL)): did not show any difference in viability; also recorded: not affected
